Measurements: paper PMC8752738, “A propolis-derived small molecule ameliorates metabolic syndrome in obese mice by targeting the CREB/CRTC2 transcriptional complex” (Nature Communications, 2022)
Several values for one entry are separate records, joined by “and”; a condition that tells them apart may be missing. Equal values may be shown once.

Experiment: Glucose, insulin, and pyruvate tolerance tests
Assay type: in vivo, mouse
Set-up: AUC of IGTT, Total Area / AUC analysis of ITT, Total Area / AUC of ITT, group mean / AUC of PTT, group mean / IGTT, Mean Diff. APC - VEH / IGTT, group mean (Mean 1, APC): unit not given beside the values
Conditions: for ITT, group mean: N=7
Description: After overnight fasting, mice were i.p. injected or treated orally with D-glucose (1–2 g/kg) for glucose-tolerance tests (IGTT or OGTT) or injecting with sodium pyruvate (1–2 g/kg) for pyruvate tolerance tests (PTT). Insulin-tolerance tests (ITT) were performed by i.p. injection of insulin (1 U/kg) 2-h after food removal. […]

[1] = db/db mice, ip APC, ITT 0-120 min
[2] = db/db mice, ip APC, 15 min, n=6
[3] = db/db mice, ip APC, 30 min, n=6
[4] = db/db mice, ip APC, 60 min, n=6
[5] = db/db mice, ip APC, 120 min, n=6
[6] = db/db mice, ip APC, PTT 0-120 min

With `CC(C)=CCc1cc(C=CC(=O)O)cc(CC=C(C)C)c1O` [APC, 3,5-diprenyl-4-hydroxycinnamic acid] the “ITT, group mean” value (0 min, mean of APC group) was 153.8, the “ITT, group mean” value (15 min, mean of APC group) was 88.97 and the “ITT, group mean” value (30 min, mean of APC group) was 83.06. For the same molecule, the “ITT, group mean” value (60 min, mean of APC group) was 75.86, the “ITT, group mean” value (100 min, mean of APC group) was 85.63 and the “AUC of IGTT in db/db, difference between means (APC - VEH) ± SEM” value (db/db mice) was -383.6 ± 97.97. The “IGTT, Mean Diff. APC - VEH” value (db/db mice, 0 min) was -33.3, the “IGTT, group mean (Mean 1, APC)” value (db/db mice, 0 min, n=8) was 142 and the “IGTT, Mean Diff. APC - VEH” value (db/db mice, 15 min) was -2.925. For the same molecule, the “IGTT, group mean (Mean 1, APC)” value (db/db mice, 15 min, n=8) was 441.9, the “IGTT, Mean Diff. APC - VEH” value (db/db mice, 30 min) was -145.1 and the “IGTT, group mean (Mean 1, APC)” value (db/db mice, 30 min, n=8) was 281. The “IGTT, Mean Diff. APC - VEH” value (db/db mice, 60 min) was -166.5, the “IGTT, group mean (Mean 1, APC)” value (db/db mice, 60 min, n=8) was 217.8 and the “IGTT, Mean Diff. APC - VEH” value (db/db mice, 120 min) was -105. For the same molecule, the “IGTT, group mean (Mean 1, APC)” value (db/db mice, 120 min, n=8) was 171, the “AUC of ITT (Total Area), individual mice” value (db/db mice, ip APC) was 528.6 and 524.4 and 533.7 and 561.3 and 514.8 and 472.5 and the “AUC of ITT in db, difference between means (APC - VEH) ± SEM” value (db/db mice, ip APC) was -215.2 ± 51.46. The “AUC of PTT, individual mice” value (db/db mice, ip APC) was 534.6 and 662.4 and 481.5 and 659.7 and 691.6 and 494.5, the IGTT blood glucose (db/db mice, ip APC, 0 mins, individual mouse, n=8) was 153 mg/dL and 144 mg/dL and 142.2 mg/dL and 138.6 mg/dL and 176.4 mg/dL and 127.8 mg/dL and 140.4 mg/dL and 113.4 mg/dL and the IGTT blood glucose (db/db mice, ip APC, 15 mins, individual mouse, n=8) was 477 mg/dL and 363.6 mg/dL and 334.8 mg/dL and 511.2 mg/dL and 419.4 mg/dL and 423 mg/dL and 480.6 mg/dL and 525.6 mg/dL. For the same molecule, the IGTT blood glucose (db/db mice, ip APC, 30 mins, individual mouse, n=8) was 262.8 mg/dL and 450 mg/dL and 293.4 mg/dL and 275.4 mg/dL and 228.4 mg/dL and 228.6 mg/dL and 124.2 mg/dL and 385.2 mg/dL, the IGTT blood glucose (db/db mice, ip APC, 60 mins, individual mouse, n=8) was 205.2 mg/dL and 233.8 mg/dL and 221.4 mg/dL and 237.6 mg/dL and 329.4 mg/dL and 163.8 mg/dL and 135 mg/dL and 216 mg/dL and the IGTT blood glucose (db/db mice, ip APC, 120 mins, individual mouse, n=8) was 176.4 mg/dL and 270 mg/dL and 153 mg/dL and 138.6 mg/dL and 250.2 mg/dL and 133.2 mg/dL and 99 mg/dL and 147.6 mg/dL. For the same molecule, the “ITT blood glucose, difference between column means (CT vs APC)” value [1] was 51.32, the “ITT blood glucose, mean over all time points (Mean of APC)” value [1] was 134.7 and the “ITT blood glucose, Mean Diff. APC - CT” value (db/db mice, ip APC, 0 min) was -52.47. The “ITT blood glucose, individual mice” value (db/db mice, ip APC, 0 min) was 178.2 mg/dL and 172.8 mg/dL and 156.6 mg/dL and 194.4 mg/dL and 190.4 mg/dL and 192.6 mg/dL, the “ITT blood glucose, group mean (Mean 1, APC)” value (“ITT blood glucose, group mean” below) (db/db mice, ip APC, 0 min, n=6) was 180.8 and the “ITT blood glucose, Mean Diff. APC - CT” value (db/db mice, ip APC, 15 min) was -63.57. For the same molecule, the “ITT blood glucose, individual mice” value (db/db mice, ip APC, 15 min) was 137.6 mg/dL and 129.6 mg/dL and 153 mg/dL and 133 mg/dL and 138.3 mg/dL and 126 mg/dL, the “ITT blood glucose, group mean” value [2] was 136.3 and the “ITT blood glucose, Mean Diff. APC - CT” value (db/db mice, ip APC, 30 min) was -56.08. For the same molecule, the “ITT blood glucose, individual mice” value (db/db mice, ip APC, 30 min) was 101.2 mg/dL and 129.6 mg/dL and 115.2 mg/dL and 124.2 mg/dL and 128.4 mg/dL and 111.6 mg/dL, the “ITT blood glucose, group mean” value [3] was 118.4 and the “ITT blood glucose, Mean Diff. APC - CT” value (db/db mice, ip APC, 60 min) was -54.15. For the same molecule, the “ITT blood glucose, individual mice” value (db/db mice, ip APC, 60 min) was 120.6 mg/dL and 115 mg/dL and 129.6 mg/dL and 138.6 mg/dL and 105.2 mg/dL and 91.8 mg/dL, the “ITT blood glucose, group mean” value [4] was 116.8 and the “ITT blood glucose, Mean Diff. APC - CT” value (db/db mice, ip APC, 120 min) was -30.35. The “ITT blood glucose, individual mice” value (db/db mice, ip APC, 120 min) was 160.2 mg/dL and 127.6 mg/dL and 115.2 mg/dL and 136.6 mg/dL and 95.3 mg/dL and 93.6 mg/dL, the “ITT blood glucose, group mean” value [5] was 121.4 and the “PTT blood glucose, difference between column means (VEH vs APC)” value [6] was 95.48. For the same molecule, the “PTT blood glucose, mean over all time points (Mean of APC)” value [6] was 143.6, the “PTT blood glucose, Mean Diff. APC - VEH” value (db/db mice, ip APC, 0 min) was -59.27 and the “PTT blood glucose, individual mice” value (db/db mice, ip APC, 0 min) was 156.6 mg/dL and 129.6 mg/dL and 131.4 mg/dL and 153 mg/dL and 147.6 mg/dL and 135.8 mg/dL. The “PTT blood glucose, group mean (Mean 1, APC)” value (shortened to “PTT blood glucose, group mean”) (db/db mice, ip APC, 0 min, n=6) was 142.3, the “PTT blood glucose, Mean Diff. APC - VEH” value (db/db mice, ip APC, 15 min) was -65.02 and the “PTT blood glucose, individual mice” value (db/db mice, ip APC, 15 min) was 142.2 mg/dL and 181.8 mg/dL and 156.6 mg/dL and 169.2 mg/dL and 180.5 mg/dL and 149.4 mg/dL. For the same molecule, the “PTT blood glucose, group mean” value [2] was 163.3, the “PTT blood glucose, Mean Diff. APC - VEH” value (db/db mice, ip APC, 30 min) was -106.5 and the “PTT blood glucose, individual mice” value (db/db mice, ip APC, 30 min) was 135 mg/dL and 194.4 mg/dL and 126 mg/dL and 172.8 mg/dL and 163.7 mg/dL and 142.2 mg/dL. The “PTT blood glucose, group mean” value [3] was 155.7, the “PTT blood glucose, Mean Diff. APC - VEH” value (db/db mice, ip APC, 60 min) was -119.1 and the “PTT blood glucose, individual mice” value (db/db mice, ip APC, 60 min) was 124.2 mg/dL and 140.4 mg/dL and 99 mg/dL and 169.2 mg/dL and 201.6 mg/dL and 93.6 mg/dL. The “PTT blood glucose, group mean” value [4] was 138, the “PTT blood glucose, Mean Diff. APC - VEH” value (db/db mice, ip APC, 120 min) was -127.5 and the “PTT blood glucose, individual mice” value (db/db mice, ip APC, 120 min) was 109.8 mg/dl and 162 mg/dl and 68.4 mg/dl and 144 mg/dl (2×) and 82.8 mg/dl. For the same molecule, the “PTT blood glucose, group mean” value [5] was 118.5, the “IGTT AUC, Total Area” value (db/db mice, ip APC, individual mouse, n=8) was 1110 and 1254 and 997.2 and 1163 and 1191 and 945.9 and 859.5 and 1257 and the “AUC of ITT in db, group mean” value (db/db mice, ip APC, n=6) was 522.6. For the same molecule, the “AUC in PTT, mean of differences (APC - VEH)” value (db/db mice, ip APC, paired t test, 6 pairs) was -383.9, the “AUC of IGTT in db/db, group mean” value (db/db mice, n=8) was 1097 and the “AUC of ITT, group mean” value (mean of APC group, n=7) was 367.6.
